ChEMBL document CHEMBL1201862, “PubChem BioAssay data set” (2004)
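Protocol summary: plate cells (96-well), add compound at 5 concentrations, incubate 48 h, interpolate endpoints linearly. Here, GI50 denotes the concentration required for 50% inhibition of growth.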 The source made the active and inactive calls. Cut-off read from the data, not from the text of the source: active = GI50 up to about 1.1 µM and inactive = higher.

Key:
Assay in all cases: NCI-60 cell line screen, 48 h
[1] = system: OVCAR-5
[2] = system: MDA-MB-231
[3] = system: TK-10
[4] = system: SNB-75
[5] = system: NCI-H226
[6] = system: COLO 205
[7] = system: UO-31
[8] = system: K562
[9] = system: SR
[10] = system: NCI-H23
[11] = system: OVCAR-3
[12] = system: NCI-H460
[13] = system: NCI/ADR-RES
[14] = system: A549
[15] = system: U-251
[16] = system: HL-60
[17] = system: RXF 393
[18] = system: SF-295
[19] = system: A498
[20] = system: HOP-92

| Compound | GI50 [1] | GI50 [2] | GI50 [3] | GI50 [4] | GI50 [5] | GI50 [6] | GI50 [7] | GI50 [8] | GI50 [9] | GI50 [10] | GI50 [11] | GI50 [12] | GI50 [13] | GI50 [14] | GI50 [15] | GI50 [16] | GI50 [17] | GI50 [18] | GI50 [19] | GI50 [20] |
| --- | --- | --- | --- | --- | --- | --- | --- | --- | --- | --- | --- | --- | --- | --- | --- | --- | --- | --- | --- | --- |
| Cc1c2c(n(CCc3ccc(Cl)cc3)c1C)NN=C(C#N)S2(=O)=O | > 100 µM (inactive) | > 100 µM (inactive) | > 100 µM (inactive) | > 100 µM (inactive) | > 100 µM (inactive) | > 100 µM (inactive) | > 100 µM (inactive) | 84.7 µM (inactive) | 61.9 µM (inactive) | > 100 µM (inactive) | > 100 µM (inactive) | > 100 µM (inactive) | 61.9 µM (inactive) | > 100 µM (inactive) | > 100 µM (inactive) | – | – | – | – | – |
| COc1ccc2c(c1)[n+]([O-])c(C#N)c(N1CCN(c3ccc([N+](=O)[O-])cc3)CC1)[n+]2[O-] | 7.1 µM (inactive) | 5.31 µM (inactive) | 9.68 µM (inactive) | 8.53 µM (inactive) | 10.7 µM (inactive) | 2.24 µM (inactive) | < 0.01 µM (active) | 1.45 µM (inactive) | 0.41 µM (active) | 3.23 µM (inactive) | 9.91 µM (inactive) | 3.63 µM (inactive) | 2.45 µM (inactive) | 3.08 µM (inactive) | 2.41 µM (inactive) | 5.42 µM (inactive) | 6.89 µM (inactive) | 3.77 µM (inactive) | – | – |
| CC(=O)OCCN(C1=NCCN1)/[N+](C=c1ccc(=C=[N-])cc1)=C/c1ccc(C#N)cc1 | > 100 µM (inactive) | > 100 µM (inactive) | > 100 µM (inactive) | > 100 µM (inactive) | > 100 µM (inactive) | > 100 µM (inactive) | > 100 µM (inactive) | > 100 µM (inactive) | > 100 µM (inactive) | > 100 µM (inactive) | > 100 µM (inactive) | > 100 µM (inactive) | 94.6 µM (inactive) | > 100 µM (inactive) | > 100 µM (inactive) | – | > 100 µM (inactive) | > 100 µM (inactive) | – | – |
| Cc1cc(-c2ccc(C(=O)C(Cl)(Cl)Cl)[nH]2)on1 | 22.6 µM (inactive) | 18 µM (inactive) | 27.4 µM (inactive) | 31.3 µM (inactive) | 22.4 µM (inactive) | 86.7 µM (inactive) | 22.3 µM (inactive) | 18.3 µM (inactive) | – | 23.8 µM (inactive) | 25.1 µM (inactive) | 10.2 µM (inactive) | 29.3 µM (inactive) | 33.5 µM (inactive) | 15.4 µM (inactive) | 21.1 µM (inactive) | 17.1 µM (inactive) | 33.3 µM (inactive) | 41.3 µM (inactive) | 51.5 µM (inactive) |
| CNC(=O)CCNC(=O)CCC(=O)N(C)C | > 100 µM (inactive) | > 100 µM (inactive) | > 100 µM (inactive) | – | – | > 100 µM (inactive) | > 100 µM (inactive) | > 100 µM (inactive) | 0.951 µM (active) | > 100 µM (inactive) | > 100 µM (inactive) | > 100 µM (inactive) | > 100 µM (inactive) | > 100 µM (inactive) | > 100 µM (inactive) | – | > 100 µM (inactive) | > 100 µM (inactive) | > 100 µM (inactive) | – |
| COc1cc([C@@H]2c3cc4c(cc3[C@@H](c3c(O)cc(O)c5c3O[C@H](c3ccc(O)c(O)c3)[C@H](OC(=O)c3cc(O)c(O)c(O)c3)C5)[C@H]3COC(=O)[C@H]23)OCO4)cc(OC)c1O | 39.4 µM (inactive) | 57.8 µM (inactive) | 92.3 µM (inactive) | – | – | 28.7 µM (inactive) | – | – | – | 69.2 µM (inactive) | 28.2 µM (inactive) | 32.5 µM (inactive) | 54.8 µM (inactive) | 29.4 µM (inactive) | 46.5 µM (inactive) | 19.5 µM (inactive) | 59.4 µM (inactive) | 39.3 µM (inactive) | 74.5 µM (inactive) | 58.2 µM (inactive) |
| COc1cc(/N=C(\N)N=C(N)N)c2ncccc2c1 | > 100 µM (inactive) | > 100 µM (inactive) | > 100 µM (inactive) | 60.4 µM (inactive) | 18.7 µM (inactive) | 74.8 µM (inactive) | > 100 µM (inactive) | – | – | 80.7 µM (inactive) | > 100 µM (inactive) | > 100 µM (inactive) | > 100 µM (inactive) | > 100 µM (inactive) | 38 µM (inactive) | – | > 100 µM (inactive) | > 100 µM (inactive) | > 100 µM (inactive) | 67 µM (inactive) |
| S=C(N/N=C/c1ccccn1)N1CC2CCC(CC2)C1 | < 0.024 µM (active) | < 0.01 µM (active) | < 0.01 µM (active) | 0.2 µM (active) | – | < 0.01 µM (active) | < 0.0111 µM (active) | < 0.01 µM (active) | – | < 0.01 µM (active) | < 0.01 µM (active) | < 0.01 µM (active) | < 0.01 µM (active) | < 0.01 µM (active) | < 0.01 µM (active) | < 0.01 µM (active) | 0.0703 µM (active) | < 0.0128 µM (active) | 0.119 µM (active) | 0.0568 µM (active) |
| CCOC(=O)CC1c2ccc(O)cc2OC(=O)C1c1ccc(N)cc1 (stereo not drawn) | – | > 100 µM (inactive) | > 100 µM (inactive) | 84.9 µM (inactive) | > 100 µM (inactive) | > 100 µM (inactive) | > 100 µM (inactive) | > 100 µM (inactive) | > 100 µM (inactive) | > 100 µM (inactive) | > 100 µM (inactive) | > 100 µM (inactive) | > 100 µM (inactive) | > 100 µM (inactive) | > 100 µM (inactive) | – | > 100 µM (inactive) | > 100 µM (inactive) | > 100 µM (inactive) | – |
| O=[N+]([O-])c1ccc(-c2nc3cc(Cl)ccc3[nH]2)cc1 | – | > 100 µM (inactive) | > 100 µM (inactive) | 73.5 µM (inactive) | 82.6 µM (inactive) | 32.9 µM (inactive) | 26.1 µM (inactive) | – | 34.6 µM (inactive) | 42.5 µM (inactive) | 45.1 µM (inactive) | 37.2 µM (inactive) | 31.3 µM (inactive) | 42.3 µM (inactive) | – | – | – | 39.2 µM (inactive) | – | 46.7 µM (inactive) |
| NNC1=N/C(=C\c2ccccc2O)C(=O)N1 | 65.3 µM (inactive) | 35.4 µM (inactive) | 60.1 µM (inactive) | > 100 µM (inactive) | 47.5 µM (inactive) | 29.6 µM (inactive) | 16.6 µM (inactive) | 28.1 µM (inactive) | – | 53.6 µM (inactive) | 35.1 µM (inactive) | 20.2 µM (inactive) | 35.8 µM (inactive) | 30.9 µM (inactive) | 33.3 µM (inactive) | 14.6 µM (inactive) | 49.3 µM (inactive) | 36 µM (inactive) | > 100 µM (inactive) | > 100 µM (inactive) |
| O=C(/C=C/c1ccc2c(c1)OCO2)CC(=O)/C=C/c1ccc2c(c1)OCO2 | > 100 µM (inactive) | 34.6 µM (inactive) | > 100 µM (inactive) | > 100 µM (inactive) | > 100 µM (inactive) | > 100 µM (inactive) | > 100 µM (inactive) | 80.2 µM (inactive) | 39.1 µM (inactive) | 19.6 µM (inactive) | 27.1 µM (inactive) | 82.8 µM (inactive) | 69.3 µM (inactive) | > 100 µM (inactive) | 91.4 µM (inactive) | 41.7 µM (inactive) | 87.7 µM (inactive) | > 100 µM (inactive) | – | – |
